Test results taken from ChEMBL document CHEMBL1149940, “Conformationally constrained analogues of diacylglycerol. 6. Changes in PK-C binding affinity for 3-O-acyl-2-deoxy-L-ribonolactones bearing different acyl chains” (Bioorg Med Chem Lett, 1994).

What was measured:
[1] = Inhibition of [3H]phorbol-12,13-dibutyrate binding to mouse brain protein kinase C (calculated value from percent inhibition at 100 ug/mL)
[2] = Logarithm of water solubility was reported; format: ADME; details: buffer
[3] = Inhibition of [3H]phorbol-12,13-dibutyrate binding to mouse brain protein kinase C
Mus musculus = species on record: Mus musculus; test: Inhibition of [3H]phorbol-12,13-dibutyrate binding to mouse brain protein kinase C at 100 ug/mL
[4] = Inhibition of [3H]phorbol-12,13-dibutyrate binding to mouse brain protein kinase C (No inhibition at >1700 uM)

Q: Which Ki [1] does the source give for O=C1C[C@@H](OC(=O)Cc2ccccc2)[C@H](CO)O1 here?
A: The Ki was 222 µM.

Q: What about the “log S” value [2] of the same compound?
A: The value was 1.09 M/m3.

Q: Which Ki [3] does the source give for CCCCCCCc1ccc(C(=O)O[C@H]2CC(=O)O[C@@H]2CO)cc1 here?
A: Its Ki is 8.9 µM.

Q: For CCCCCCCCCCC(CCCC)CCCCCCC(=O)O[C@@H]1CC(=O)O[C@H]1CO (some centres undefined), which Ki [3] is on record?
A: The Ki was 2.45 µM.

Q: What about the “log S” value [2] of the same compound?
A: Its value is -6.46 M/m3.

Q: For CCCCCCCCCCC(CCCCCCC(=O)O[C@@H]1CC(=O)O[C@H]1CO)c1ccccc1 (some centres undefined), which Ki [3] is on record?
A: The Ki was 1.21 µM.

Q: And the “log S” value [2]?
A: The value was -6.91 M/m3.

Q: Which inhibition (Mus musculus) does the source give for O=C1C[C@H](OC(=O)c2ccc3ccccc3c2)[C@@H](CO)O1 here?
A: The inhibition was 28%.

Q: For CCCCCCCCCCCCCC(=O)O[C@H]1CC(=O)O[C@@H]1CO, which Ki [3] is on record?
A: The Ki was 5.3 µM.

Q: Which Ki [3] does the source give for CCCCCCCCCCCCCC(=O)O[C@@H]1CC(=O)O[C@H]1CO here?
A: The Ki was 2.53 µM.

Q: And the “log S” value [2]?
A: Its value is -2.62 M/m3.

Q: Which inhibition (Mus musculus) does the source give for O=C1C[C@H](OC(=O)c2cccc3ccccc23)[C@@H](CO)O1 here?
A: Its inhibition is 30%.

Q: For O=C1C[C@H](OC(=O)c2ccccc2)[C@@H](CO)O1, which inhibition (Mus musculus) is on record?
A: The inhibition was 9.5%.

Q: For COc1ccc(C(=O)O[C@H]2CC(=O)O[C@@H]2CO)cc1, which inhibition (Mus musculus) is on record?
A: Its inhibition is 2%.

Q: With CCCCCCCC/C=C/CCCCCCCC(=O)O[C@@H]1CC(=O)O[C@H]1CO as the compound, how does the Ki [3] read?
A: Its Ki is 1.33 µM.

Q: And the “log S” value [2]?
A: Its value is -3.9 M/m3.

Q: Which Ki [3] does the source give for CCCCCC(=O)O[C@@H]1CC(=O)O[C@H]1CO here?
A: Its Ki is 188 µM.

Q: What about the “log S” value [2] of the same compound?
A: Its value is 1.54 M/m3.

Q: For CCc1ccc(C(=O)O[C@H]2CC(=O)O[C@@H]2CO)cc1, which inhibition (Mus musculus) is on record?
A: Its inhibition is 21%.

Q: For CCCCCCCCCCCCCCCCCC(=O)O[C@@H]1CC(=O)O[C@H]1CO, which Ki [3] is on record?
A: The Ki was 8.69 µM.

Q: And the “log S” value [2]?
A: Its value is -4.7 M/m3.

Q: For O=C(Cc1ccccc1)O[C@H]1CC(=O)O[C@@H]1CO, which inhibition (Mus musculus) is on record?
A: The inhibition was 29%.

Q: For CC(=O)O[C@@H]1CC(=O)O[C@H]1CO, which Ki [4] is on record?
A: Its Ki is “Not Active”.

Q: And the “log S” value [2]?
A: Its value is 3.62 M/m3.

Q: For CCCCCCCCCCC(C)CCCCCCC(=O)O[C@@H]1CC(=O)O[C@H]1CO (some centres undefined), which Ki [3] is on record?
A: The Ki was 2.39 µM.

Q: And the “log S” value [2]?
A: Its value is -4.9 M/m3.

Q: Which inhibition (Mus musculus) does the source give for O=C(/C=C/c1ccccc1)O[C@H]1CC(=O)O[C@@H]1CO here?
A: Its inhibition is 18.5%.

Q: What does the source list for CCCCCCCCCC(=O)O[C@@H]1CC(=O)O[C@H]1CO?
A: Ki [3]: 4.06 µM; log S [2]: -0.54 M/m3

Q: Which results are given for CCCCCCCc1ccc(C(=O)O[C@@H]2CC(=O)O[C@H]2CO)cc1?
A: Ki [3]: 3.2 µM; log S [2]: -2.05 M/m3

Q: With O=C1C[C@H](OC(=O)c2ccc(-c3ccccc3)cc2)[C@@H](CO)O1 as the compound, how does the inhibition (Mus musculus) read?
A: Its inhibition is 6.5%.

Q: For O=C1C[C@@H](OC(=O)c2cccc3ccccc23)[C@H](CO)O1, which Ki [3] is on record?
A: The Ki was 23.5 µM.

Q: And the “log S” value [2]?
A: Its value is -0.18 M/m3.
